Results reported in the kinase profiling compilation of Christmann-Franck et al. (2016).

Tests used:
Experiment in all cases: radiometric filter-binding kinase assay, Kinase HotSpot
TGFBR2 (human) = TGFBR2 (human) (UniProt P37173); settings: compound 0.5 µM; ATP 10 µM
MAP3K11 (human) = MAP3K11 (human) (UniProt Q16584); settings: compound 0.5 µM; ATP 10 µM
PDGFRA (human) = PDGFRA (human) (UniProt P16234); settings: compound 0.5 µM; ATP 10 µM
CLK2 (human) = CLK2 (human) (UniProt P49760); settings: compound 0.5 µM; ATP 10 µM
PRKCE (human) = PRKCE (human) (UniProt Q02156); settings: compound 0.5 µM; ATP 10 µM
MINK1 (human) = MINK1 (human) (UniProt Q8N4C8); settings: compound 0.5 µM; ATP 10 µM
[1] = target: JAK1 JH1 catalytic (human) (UniProt P23458); settings: compound 0.5 µM; ATP 10 µM
MAPK13 (human) = MAPK13 (human) (UniProt O15264); settings: compound 0.5 µM; ATP 10 µM
DYRK3 (human) = DYRK3 (human) (UniProt O43781); settings: compound 0.5 µM; ATP 10 µM
DYRK3 (human), sequence (O43781 whole entry, looked up): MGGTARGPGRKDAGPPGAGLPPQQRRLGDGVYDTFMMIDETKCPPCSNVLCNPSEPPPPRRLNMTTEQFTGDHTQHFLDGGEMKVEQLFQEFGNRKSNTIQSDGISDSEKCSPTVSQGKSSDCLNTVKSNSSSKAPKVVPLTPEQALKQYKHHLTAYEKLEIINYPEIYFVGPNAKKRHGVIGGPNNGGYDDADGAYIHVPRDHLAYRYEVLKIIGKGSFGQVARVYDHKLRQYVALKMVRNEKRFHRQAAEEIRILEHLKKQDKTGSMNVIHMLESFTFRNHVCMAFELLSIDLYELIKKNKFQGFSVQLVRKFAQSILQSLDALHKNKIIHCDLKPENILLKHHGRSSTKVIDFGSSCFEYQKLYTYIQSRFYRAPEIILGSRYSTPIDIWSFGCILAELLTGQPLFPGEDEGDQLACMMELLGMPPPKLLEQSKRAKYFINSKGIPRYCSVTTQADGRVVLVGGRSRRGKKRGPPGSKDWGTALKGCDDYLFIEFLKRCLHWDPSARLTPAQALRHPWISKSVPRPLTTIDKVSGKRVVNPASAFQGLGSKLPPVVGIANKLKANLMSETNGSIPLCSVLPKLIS

CSNK1G2 (human) = CSNK1G2 (human) (UniProt P78368); settings: compound 0.5 µM; ATP 10 µM
HIPK4 (human) = HIPK4 (human) (UniProt Q8NE63); settings: compound 0.5 µM; ATP 10 µM
PDGFRB (human) = PDGFRB (human) (UniProt P09619); settings: compound 0.5 µM; ATP 10 µM
CDK3 CCNE1 (human) = CDK3 CCNE1 (human) (UniProt Q00526+P24864); settings: compound 0.5 µM
ZAP70 (human) = ZAP70 (human) (UniProt P43403); settings: compound 0.5 µM; ATP 10 µM
ROS1 (human) = ROS1 (human) (UniProt P08922); settings: compound 0.5 µM; ATP 10 µM
[2] = target: TYK2 JH1 catalytic (human) (UniProt P29597); settings: compound 0.5 µM; ATP 10 µM
KIT (human) = KIT (human) (UniProt P10721); settings: compound 0.5 µM; ATP 10 µM
FER (human) = FER (human) (UniProt P16591); settings: compound 0.5 µM; ATP 10 µM
FER (human), sequence (P16591 whole entry, looked up): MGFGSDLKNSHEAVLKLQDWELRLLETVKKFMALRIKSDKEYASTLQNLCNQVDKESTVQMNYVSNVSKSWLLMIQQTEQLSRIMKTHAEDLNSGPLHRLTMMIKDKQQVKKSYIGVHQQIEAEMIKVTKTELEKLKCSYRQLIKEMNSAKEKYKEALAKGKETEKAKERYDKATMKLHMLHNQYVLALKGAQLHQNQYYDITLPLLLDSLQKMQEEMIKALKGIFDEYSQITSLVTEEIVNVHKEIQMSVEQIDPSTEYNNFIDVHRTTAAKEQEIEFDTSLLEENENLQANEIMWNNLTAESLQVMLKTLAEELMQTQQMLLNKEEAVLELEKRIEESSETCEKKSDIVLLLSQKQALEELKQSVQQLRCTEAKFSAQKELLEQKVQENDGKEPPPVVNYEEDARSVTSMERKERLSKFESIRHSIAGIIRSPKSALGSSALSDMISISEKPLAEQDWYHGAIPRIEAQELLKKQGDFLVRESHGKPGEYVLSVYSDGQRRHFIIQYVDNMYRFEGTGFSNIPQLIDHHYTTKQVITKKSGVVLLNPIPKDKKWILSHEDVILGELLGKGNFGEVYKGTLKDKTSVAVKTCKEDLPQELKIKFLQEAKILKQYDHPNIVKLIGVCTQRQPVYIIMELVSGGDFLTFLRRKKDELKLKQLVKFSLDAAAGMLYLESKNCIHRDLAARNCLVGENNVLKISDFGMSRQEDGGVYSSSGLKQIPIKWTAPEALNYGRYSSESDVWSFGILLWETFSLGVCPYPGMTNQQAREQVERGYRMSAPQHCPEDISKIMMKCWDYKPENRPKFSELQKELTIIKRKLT

NLK (human) = NLK (human) (UniProt Q9UBE8); settings: compound 0.5 µM; ATP 10 µM
NLK (human), sequence (Q9UBE8 whole entry, looked up): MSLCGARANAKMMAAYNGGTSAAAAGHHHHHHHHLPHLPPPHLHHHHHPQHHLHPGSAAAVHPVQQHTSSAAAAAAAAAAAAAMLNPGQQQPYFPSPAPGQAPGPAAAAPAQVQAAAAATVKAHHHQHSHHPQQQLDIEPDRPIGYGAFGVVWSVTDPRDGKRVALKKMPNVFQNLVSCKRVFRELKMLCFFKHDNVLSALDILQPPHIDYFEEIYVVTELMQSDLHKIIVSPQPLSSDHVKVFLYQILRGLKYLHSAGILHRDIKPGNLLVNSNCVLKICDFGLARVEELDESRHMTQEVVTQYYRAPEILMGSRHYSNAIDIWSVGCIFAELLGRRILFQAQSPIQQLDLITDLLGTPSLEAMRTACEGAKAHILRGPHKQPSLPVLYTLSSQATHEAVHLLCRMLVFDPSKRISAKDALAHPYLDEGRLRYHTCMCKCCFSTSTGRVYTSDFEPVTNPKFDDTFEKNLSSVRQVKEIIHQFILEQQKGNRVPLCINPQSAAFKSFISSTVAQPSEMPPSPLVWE

GRK7 (human) = GRK7 (human) (UniProt Q8WTQ7); settings: compound 0.5 µM; ATP 10 µM
NEK1 (human) = NEK1 (human) (UniProt Q96PY6); settings: compound 0.5 µM; ATP 10 µM
TTK (human) = TTK (human) (UniProt P33981); settings: compound 0.5 µM; ATP 10 µM
SIK2 (human) = SIK2 (human) (UniProt Q9H0K1); settings: compound 0.5 µM; ATP 10 µM
PAK3 (human) = PAK3 (human) (UniProt O75914); settings: compound 0.5 µM; ATP 10 µM
RPS6KA3 KD1 KD2 (human) = RPS6KA3 KD1 KD2 (human) (UniProt P51812); settings: compound 0.5 µM; ATP 10 µM
RPS6KA3 KD1 KD2 (human), sequence (P51812 whole entry, looked up): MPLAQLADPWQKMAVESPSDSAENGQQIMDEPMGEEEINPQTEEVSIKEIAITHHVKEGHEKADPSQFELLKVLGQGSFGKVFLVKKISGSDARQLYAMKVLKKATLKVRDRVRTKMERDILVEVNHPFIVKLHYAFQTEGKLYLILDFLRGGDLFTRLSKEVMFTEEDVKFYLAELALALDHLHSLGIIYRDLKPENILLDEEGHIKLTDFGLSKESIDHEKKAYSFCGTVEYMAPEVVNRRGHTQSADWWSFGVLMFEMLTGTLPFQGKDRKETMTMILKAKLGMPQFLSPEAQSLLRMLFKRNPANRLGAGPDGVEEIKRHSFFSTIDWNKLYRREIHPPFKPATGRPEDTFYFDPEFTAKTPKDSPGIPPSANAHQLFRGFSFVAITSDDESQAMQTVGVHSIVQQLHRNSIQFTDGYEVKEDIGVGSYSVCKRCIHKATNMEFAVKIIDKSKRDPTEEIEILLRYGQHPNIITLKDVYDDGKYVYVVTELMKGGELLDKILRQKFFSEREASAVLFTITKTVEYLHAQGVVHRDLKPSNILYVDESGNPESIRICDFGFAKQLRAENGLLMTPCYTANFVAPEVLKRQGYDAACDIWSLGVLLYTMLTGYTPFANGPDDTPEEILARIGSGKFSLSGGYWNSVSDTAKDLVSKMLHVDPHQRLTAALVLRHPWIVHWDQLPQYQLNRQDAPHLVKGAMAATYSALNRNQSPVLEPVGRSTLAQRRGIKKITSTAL

ERBB4 (human) = ERBB4 (human) (UniProt Q15303); settings: compound 0.5 µM; ATP 10 µM
MAP3K8 (human) = MAP3K8 (human) (UniProt P41279); settings: compound 0.5 µM; ATP 10 µM
MAP3K8 (human), sequence (P41279 whole entry, looked up): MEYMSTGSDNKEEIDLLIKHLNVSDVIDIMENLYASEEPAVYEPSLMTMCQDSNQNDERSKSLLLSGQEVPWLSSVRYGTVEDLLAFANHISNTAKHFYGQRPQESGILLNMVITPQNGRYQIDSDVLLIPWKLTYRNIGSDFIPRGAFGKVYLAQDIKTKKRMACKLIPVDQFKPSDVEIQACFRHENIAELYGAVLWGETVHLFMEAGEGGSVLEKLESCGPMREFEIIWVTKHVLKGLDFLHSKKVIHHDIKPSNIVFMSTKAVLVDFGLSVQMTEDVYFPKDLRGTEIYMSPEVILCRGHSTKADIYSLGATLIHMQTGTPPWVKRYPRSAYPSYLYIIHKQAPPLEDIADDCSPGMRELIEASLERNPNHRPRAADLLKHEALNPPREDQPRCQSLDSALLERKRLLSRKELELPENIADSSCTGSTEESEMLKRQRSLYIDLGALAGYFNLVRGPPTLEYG

ACVR1 (human) = ACVR1 (human) (UniProt Q04771); settings: compound 0.5 µM; ATP 10 µM
MAP3K3 (human) = MAP3K3 (human) (UniProt Q99759); settings: compound 0.5 µM; ATP 10 µM
MAP3K3 (human), sequence (Q99759 whole entry, looked up): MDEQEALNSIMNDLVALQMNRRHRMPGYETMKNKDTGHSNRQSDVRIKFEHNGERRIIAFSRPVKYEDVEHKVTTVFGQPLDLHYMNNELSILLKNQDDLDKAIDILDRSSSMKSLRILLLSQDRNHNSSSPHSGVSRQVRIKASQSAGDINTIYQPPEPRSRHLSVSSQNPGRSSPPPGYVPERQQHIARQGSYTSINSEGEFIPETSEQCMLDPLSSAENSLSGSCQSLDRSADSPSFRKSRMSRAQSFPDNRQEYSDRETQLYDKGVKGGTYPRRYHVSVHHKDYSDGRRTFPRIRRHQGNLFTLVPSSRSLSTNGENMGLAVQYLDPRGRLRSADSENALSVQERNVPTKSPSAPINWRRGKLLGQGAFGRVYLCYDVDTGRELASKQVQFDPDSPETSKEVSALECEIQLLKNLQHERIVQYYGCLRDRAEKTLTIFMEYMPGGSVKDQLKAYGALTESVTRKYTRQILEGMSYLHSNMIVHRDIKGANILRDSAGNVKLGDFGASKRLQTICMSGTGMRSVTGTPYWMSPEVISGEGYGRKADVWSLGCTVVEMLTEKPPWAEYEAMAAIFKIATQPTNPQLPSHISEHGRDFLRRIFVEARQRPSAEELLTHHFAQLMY

NTRK3 (human) = NTRK3 (human) (UniProt Q16288); settings: compound 0.5 µM; ATP 10 µM
PKN2 (human) = PKN2 (human) (UniProt Q16513); settings: compound 0.5 µM; ATP 10 µM
CHUK (human) = CHUK (human) (UniProt O15111); settings: compound 0.5 µM; ATP 10 µM
CHUK (human), sequence (O15111 whole entry, looked up): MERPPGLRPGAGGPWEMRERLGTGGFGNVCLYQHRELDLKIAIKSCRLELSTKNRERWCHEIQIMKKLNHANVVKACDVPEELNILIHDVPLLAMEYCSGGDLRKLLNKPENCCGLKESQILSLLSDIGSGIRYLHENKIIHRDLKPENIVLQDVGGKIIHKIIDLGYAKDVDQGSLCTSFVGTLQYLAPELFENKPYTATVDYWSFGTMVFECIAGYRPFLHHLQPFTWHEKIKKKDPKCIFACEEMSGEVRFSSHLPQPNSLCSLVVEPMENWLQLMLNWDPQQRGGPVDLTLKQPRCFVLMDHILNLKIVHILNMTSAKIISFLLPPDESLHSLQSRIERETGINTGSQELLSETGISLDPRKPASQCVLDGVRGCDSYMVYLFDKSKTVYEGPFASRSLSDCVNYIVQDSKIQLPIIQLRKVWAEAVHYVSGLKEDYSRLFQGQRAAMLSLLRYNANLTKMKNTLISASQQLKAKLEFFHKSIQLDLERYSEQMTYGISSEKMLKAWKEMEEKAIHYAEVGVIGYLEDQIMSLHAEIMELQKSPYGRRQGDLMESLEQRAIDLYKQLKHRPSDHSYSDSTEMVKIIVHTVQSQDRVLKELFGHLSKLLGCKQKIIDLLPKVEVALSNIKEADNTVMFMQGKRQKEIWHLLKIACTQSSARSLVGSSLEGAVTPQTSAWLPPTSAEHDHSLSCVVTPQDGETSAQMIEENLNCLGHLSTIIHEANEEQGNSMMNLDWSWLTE

SLK (human) = SLK (human) (UniProt Q9H2G2); settings: compound 0.5 µM; ATP 10 µM
ALK (human) = ALK (human) (UniProt Q9UM73); settings: compound 0.5 µM; ATP 10 µM
CLK1 (human) = CLK1 (human) (UniProt P49759); settings: compound 0.5 µM; ATP 10 µM
CLK3 (human) = CLK3 (human) (UniProt P49761); settings: compound 0.5 µM; ATP 10 µM
CLK3 (human), sequence (P49761 whole entry, looked up): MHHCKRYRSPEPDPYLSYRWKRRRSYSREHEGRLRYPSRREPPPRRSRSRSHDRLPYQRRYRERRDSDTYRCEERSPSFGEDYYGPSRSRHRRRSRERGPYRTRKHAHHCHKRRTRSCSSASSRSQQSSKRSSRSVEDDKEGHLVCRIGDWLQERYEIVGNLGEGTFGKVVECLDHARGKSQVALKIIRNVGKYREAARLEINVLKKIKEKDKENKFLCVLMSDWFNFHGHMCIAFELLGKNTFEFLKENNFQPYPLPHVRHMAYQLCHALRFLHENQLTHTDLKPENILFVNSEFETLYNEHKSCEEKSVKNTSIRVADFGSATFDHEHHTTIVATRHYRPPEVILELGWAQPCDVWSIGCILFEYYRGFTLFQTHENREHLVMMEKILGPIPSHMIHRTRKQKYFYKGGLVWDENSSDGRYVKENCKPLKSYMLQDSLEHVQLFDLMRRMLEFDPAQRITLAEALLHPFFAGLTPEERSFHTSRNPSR

MAP4K2 (human) = MAP4K2 (human) (UniProt Q12851); settings: compound 0.5 µM; ATP 10 µM
ACVR1B (human) = ACVR1B (human) (UniProt P36896); settings: compound 0.5 µM; ATP 10 µM
MAP2K1 (human) = MAP2K1 (human) (UniProt Q02750); settings: compound 0.5 µM; ATP 10 µM
RET (human) = RET (human) (UniProt P07949); settings: compound 0.5 µM; ATP 10 µM
MARK1 (human) = MARK1 (human) (UniProt Q9P0L2); settings: compound 0.5 µM; ATP 10 µM
EPHB3 (human) = EPHB3 (human) (UniProt P54753); settings: compound 0.5 µM; ATP 10 µM

Structure (SMILES): Cn1cc(/C=C2\C(=O)Nc3ccc(S(N)(=O)=O)cc32)c2ccccc21
- residual activity (TGFBR2 (human)): 101%
- residual activity (MAP3K11 (human)): 9.89%
- residual activity (PDGFRA (human)): 81%
- residual activity (CLK2 (human)): 38.1%
- residual activity (PRKCE (human)): 77.3%
- residual activity (MINK1 (human)): 53.7%
- residual activity [1]: 83.9%
- residual activity (MAPK13 (human)): 105%
- residual activity (DYRK3 (human)): 89.7%
- residual activity (CSNK1G2 (human)): 100%
- residual activity (HIPK4 (human)): 86.2%
- residual activity (PDGFRB (human)): 66%
- residual activity (CDK3 CCNE1 (human); ATP 10 µM): 90.3%
- residual activity (ZAP70 (human)): 102%
- residual activity (ROS1 (human)): 82.2%
- residual activity [2]: 35%
- residual activity (KIT (human)): 68.2%
- residual activity (FER (human)): 20%
- residual activity (NLK (human)): 90.4%
- residual activity (GRK7 (human)): 20.9%
- residual activity (NEK1 (human)): 68.5%
- residual activity (TTK (human)): 97.3%
- residual activity (SIK2 (human)): 81.4%
- residual activity (PAK3 (human)): 93.8%
- residual activity (RPS6KA3 KD1 KD2 (human)): 12.4%
- residual activity (ERBB4 (human)): 81.3%
- residual activity (MAP3K8 (human)): 96.8%
- residual activity (ACVR1 (human)): 111%
- residual activity (MAP3K3 (human)): 80.7%
- residual activity (NTRK3 (human)): 1.18%
- residual activity (PKN2 (human)): 81.8%
- residual activity (CHUK (human)): 109%
- residual activity (SLK (human)): 28.6%
- residual activity (ALK (human)): 72.1%
- residual activity (CLK1 (human)): 88.3%
- residual activity (CLK3 (human)): 81.4%
- residual activity (MAP4K2 (human)): 17.4%
- residual activity (ACVR1B (human)): 98.4%
- residual activity (MAP2K1 (human)): 63.6%
- residual activity (RET (human)): 1.93%
- residual activity (MARK1 (human)): 40.4%
- residual activity (EPHB3 (human)): 93.2%

Structure (SMILES): O=c1[nH]c2ccccc2n1C1CCN(Cc2ccc(-c3nc4cc5[nH]cnc5cc4nc3-c3ccccc3)cc2)CC1
- residual activity (TGFBR2 (human)): 95.5%
- residual activity (MAP3K11 (human)): 94.6%
- residual activity (PDGFRA (human)): 98.2%
- residual activity (CLK2 (human)): 114%
- residual activity (PRKCE (human)): 109%
- residual activity (MINK1 (human)): 103%
- residual activity [1]: 94.6%
- residual activity (MAPK13 (human)): 102%
- residual activity (DYRK3 (human)): 101%
- residual activity (CSNK1G2 (human)): 101%
- residual activity (HIPK4 (human)): 99.3%
- residual activity (PDGFRB (human)): 102%
- residual activity (CDK3 CCNE1 (human)): 97.5%
- residual activity (ZAP70 (human)): 97.3%
- residual activity (ROS1 (human)): 101%
- residual activity [2]: 101%
- residual activity (KIT (human)): 91.7%
- residual activity (FER (human)): 99.6%
- residual activity (NLK (human)): 104%
- residual activity (GRK7 (human)): 98.5%
- residual activity (NEK1 (human)): 101%
- residual activity (TTK (human)): 104%
- residual activity (SIK2 (human)): 114%
- residual activity (PAK3 (human)): 104%
- residual activity (RPS6KA3 KD1 KD2 (human)): 96.6%
- residual activity (ERBB4 (human)): 105%
- residual activity (MAP3K8 (human)): 95.2%
- residual activity (ACVR1 (human)): 102%
- residual activity (MAP3K3 (human)): 101%
- residual activity (NTRK3 (human)): 116%
- residual activity (PKN2 (human)): 73.2%
- residual activity (CHUK (human)): 90.1%
- residual activity (SLK (human)): 97.7%
- residual activity (ALK (human)): 106%
- residual activity (CLK1 (human)): 109%
- residual activity (CLK3 (human)): 111%
- residual activity (MAP4K2 (human)): 105%
- residual activity (ACVR1B (human)): 111%
- residual activity (MAP2K1 (human)): 96.8%
- residual activity (RET (human)): 96.7%
- residual activity (MARK1 (human)): 104%
- residual activity (EPHB3 (human)): 104%

Structure (SMILES): COc1cccc(-c2cc(=O)c3ccccc3o2)c1N
- residual activity (TGFBR2 (human)): 115%
- residual activity (MAP3K11 (human)): 95.9%
- residual activity (PDGFRA (human)): 103%
- residual activity (CLK2 (human)): 103%
- residual activity (PRKCE (human)): 82.4%
- residual activity (MINK1 (human)): 96.2%
- residual activity [1]: 98.9%
- residual activity (MAPK13 (human)): 99.8%
- residual activity (DYRK3 (human)): 90.3%
- residual activity (CSNK1G2 (human)): 98.4%
- residual activity (HIPK4 (human)): 98.6%
- residual activity (PDGFRB (human)): 99.4%
- residual activity (CDK3 CCNE1 (human); ATP 10 µM): 109%
- residual activity (ZAP70 (human)): 107%
- residual activity (ROS1 (human)): 97.5%
- residual activity [2]: 92.7%
- residual activity (KIT (human)): 92.2%
- residual activity (FER (human)): 97.6%
- residual activity (NLK (human)): 96.4%
- residual activity (GRK7 (human)): 103%
- residual activity (NEK1 (human)): 81.2%
- residual activity (TTK (human)): 99%
- residual activity (SIK2 (human)): 102%
- residual activity (PAK3 (human)): 90.7%
- residual activity (RPS6KA3 KD1 KD2 (human)): 93.6%
- residual activity (ERBB4 (human)): 94.7%
- residual activity (MAP3K8 (human)): 85.7%
- residual activity (ACVR1 (human)): 92.7%
- residual activity (MAP3K3 (human)): 83%
- residual activity (NTRK3 (human)): 99.3%
- residual activity (PKN2 (human)): 81%
- residual activity (CHUK (human)): 104%
- residual activity (SLK (human)): 102%
- residual activity (ALK (human)): 84.1%
- residual activity (CLK1 (human)): 97.7%
- residual activity (CLK3 (human)): 95.4%
- residual activity (MAP4K2 (human)): 81.7%
- residual activity (ACVR1B (human)): 92.5%
- residual activity (MAP2K1 (human)): 69.1%
- residual activity (RET (human)): 107%
- residual activity (MARK1 (human)): 96.9%
- residual activity (EPHB3 (human)): 91.9%
